Data from PubChem BioAssay AID179 (DTP/NCI, 2004).
Activity calls are given as the source filed them.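 Rule for the calls: active = compounds giving half or more protection of infected cells from virus-caused growth loss, again on retest; inactive = the rest.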

Test system: CEM cells HIV-1 protection, formazan growth assay
Assay: NCI AIDS Antiviral Assay
Conditions: for IC50: measured here: growth of uninfected CEM cells
Outline: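 Human CEM cells, uninfected and HIV-1-infected, exposed to five drug concentrations; growth measured by soluble formazan assay and scored as percent protection from infection, with protecting compounds retested.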

SMILES | EC50 [µM] | IC50 [µM] | outcome
O=C1Oc2ccccc2CC1C(=O)c1ccc([N+](=O)[O-])cc1 (stereo not drawn) | > 63.1 | 52.5 | 
O=c1c2cccnc2ncn1CCN1CCCCC1 |  |  | inactive
CCC(C)C(CC)C(N)=O (stereo not drawn) | > 200 | > 200 | 
O=S1(=O)C2CCCCC2(N2CCOCC2)C1c1ccccc1 (stereo not drawn) | > 407 | 45.7 | 
COC(=O)/C=C1\C(CO)OC(n2ccc(=O)[nH]c2=O)C1O (stereo not drawn) | > 200 | > 200 | 
COc1cccc(-c2nc(-c3cnccn3)n(C3OC(CO)C(O)C(O)C3O)n2)c1 (stereo not drawn) | > 200 | > 200 | 
CC1=Nn2c(nnc2-c2ccc(N)cc2)NC(C)(C)C1 | > 933 | > 933 | 
CNC(=O)O/N=C\C=N\OC(=O)NC |  |  | inactive
CCOC(=O)C(=O)Nc1nc2ccc(C)cc2s1 |  |  | inactive
N#CC1=C(N)C(C#N)(C#N)C2(CCCC2)C2CCC=C12 (stereo not drawn) |  |  | inactive
CCCC(O)S(=O)(=O)O (stereo not drawn) | > 200 | > 200 | 
NNC(=O)c1cc(=O)[nH][nH]1 | > 200 | > 200 | 
CN(C)CCN(C)CC1COC(C)(C)O1 (stereo not drawn) |  |  | inactive
O=C(NNC(=O)c1ccccc1SSc1ccccc1C(=O)NNC(=O)c1ccccc1S)c1ccccc1S | 17.8 | 33.1 | 
CCOC(=O)C(Cc1ccccc1)P(=O)(OCC)OCC (stereo not drawn) | > 200 | 158 | 
CC(C)=CCC/C(C)=C/CN1Cc2cccc3[nH]c(=S)n(c23)CC1C (stereo not drawn) | > 18.2 |  | 
CCOC(=O)C(N)CSSCC(N)C(=O)OCC (stereo not drawn) | > 200 | > 200 | 
Cc1c([N+](=O)[O-])c(=O)oc2ccc3c(=O)ccoc3c12 | > 50.1 | 8.71 | 
COC(=O)C1=C(c2ccc3c(c2)OCO3)OC(c2ccc3c(c2)OCO3)C1 (stereo not drawn) |  |  | inactive
CC1(C)CN2Cc3cccc(n3)CN(CC(C)(C)[N-]C(=O)C(C)(OCc3ccccc3)C2)CC(C)(OCc2ccccc2)C(=O)[N-]1.[Cu+2] (stereo not drawn) | > 200 | 117 | 
CCCCC(CC)COC(=O)CC(C(=O)OCC(CC)CCCC)S(=O)(=O)O (stereo not drawn) (tested in a mixture with another compound) | > 200 | > 200 | 
CCOC(=O)/C=C(/OCC)[C@@H]1C(C(=O)c2ccc(Cl)cc2)[C@H]1/C(=C\C(=O)OCC)OCC (stereo partly drawn) | > 200 | 17.4 | 
CN1C(=O)OC2CC/C=C\CCC2C1c1ccccc1 (stereo not drawn) |  |  | inactive
Cc1cc(S(=O)(=O)Nc2nc3ccccc3[nH]2)c(S)cc1Cl | > 200 | 55 | 

SMILES | EC50 [µM] | IC50 [µM] | outcome
CC(C)(C)OC(=O)[C@@H]1CCC(=S)N1Cc1ccccc1 | > 200 | 135 | 
CC1(C)C(=O)/C(=C/c2ccccc2)C(C)(C)C1(C)C |  |  | inactive
CC(NC(=O)C(OC(=O)C(C)NC(=O)OC(C)(C)C)C(C)C)C(=O)OC(C(=O)O)C(C)C (stereo not drawn) | > 200 | > 200 | 
S=c1ssc2ccccc12 | > 97.7 | 91.2 | 
Cc1nc(Cc2n[nH]c(C)n2)n[nH]1 | > 200 | > 200 | 
CC1(C)CC(=O)/C(=C/C2CCNC2=S)C(=O)N1 (stereo not drawn) | > 501 | > 501 | 
COC1C2c3cc4c(cc3CC(C#N)(c3ccccc32)N1C(=O)c1ccccc1)OCO4 (stereo not drawn) |  |  | inactive
CCCCCCCCCCCCCCCCNc1ccn(C2CC(O)C(COC(c3ccccc3)(c3ccccc3)c3ccc(OC)cc3)O2)c(=O)n1 (stereo not drawn) | > 200 | 45.7 | 
CN(C)/C=N\c1ccnc(=O)[nH]1 | > 1320 | > 1320 | 
N[C@@H](CCC(=O)NC(Cc1ccccc1)C(=O)NCP(=O)(O)O)C(=O)O (stereo partly drawn) | > 200 | > 200 | 
Cc1csc(-n2nc(C)cc2C)n1 | > 200 | > 200 | 
NC(Cc1ccccc1)C(=O)N[C@H]1c2ccsc2/C(=N/O)[C@H]1O (stereo partly drawn) | > 200 | > 200 | 
O=C1C[C@@]23CCC4(CC2=CCC[C@H]3O1)OCCO4 |  |  | inactive
CC#CCC(OC(C)=O)c1ccccc1 (stereo not drawn) |  |  | inactive
CSc1c(C(=O)Nc2ccccc2)c(N)nn1-c1ccccc1 | > 200 | 70.8 | 
Cn1c(=O)[nH]c2[nH]c3ccccc3c2c1=O | > 200 | > 200 | 
CC1(c2ccc(Cl)cc2)C2C(=O)NC(=O)C1C(=O)NC2=O (stereo not drawn) | > 813 | 490 | 
COc1ccc2c(c1)C=C(C(C)(C)C)NS2(=O)=O | > 97.7 | > 97.7 | 
Nc1nnc2nc(CC(=O)/C=C/c3ccccc3)c(=O)[nH]n12 | > 170 | > 170 | 
COC(=O)C1(C)CCc2c(OC)ccc(OC)c2C1=O (stereo not drawn) | 120 | 324 | 
COC(=O)C1=C(C(=O)OC)SC2(S1)C(C(=O)OC)=C(C(=O)OC)Sc1c2ssc1=O | > 0.2 | 0.0575 | 
NC(N)=NS(=O)(=O)c1ccc(NC(=O)c2cccc3c(=O)c4ccccc4[nH]c23)cc1 |  |  | inactive
CON1C(=O)C2(CCCCC2)C(=O)C12C=CC(C)CC2 (stereo not drawn) | > 162 | > 162 | 
O=S1OC(c2ccccc2)(c2ccccc2)C(c2ccccc2)(c2ccccc2)O1 | > 16.2 | > 16.2 | 
